In PMC4766439, “Discovery of novel PDE9 inhibitors capable of inhibiting Aβ aggregation as potential candidates for the treatment of Alzheimer’s disease” (Scientific Reports, 2016):

Columns and labels:
[1] = system: SH-SY5Y cells; experiment: Intracellular antioxidant activity (DCFH-DA, t-BuOOH); type: cell-based, human; conditions: t-BuOOH-induced; 5 μM of 16 vs 10 μM of Trolox
Procedure: Cell culture was performed as reported previously. The human neuron-like cell line SH-SY5Y was obtained from the Institute of Biochemistry and Cell Biology, Shanghai Institute for Biological Sciences (Shanghai, China). The cells were cultured at 37 °C in a humidified atmosphere of 5% CO2 in Dulbecco’s modified Eagle’s medium (DMEM, GIBCO) supplemented with 10% fetal calf serum (FCS, GIBCO), 1 mM glutamine, 100 IU/mL penicillin, and 100 μg/mL streptomycin.
The antioxidant activity was determined as reported previously. The SH-SY5Y cells were seeded at a density of 1 × 10^4 cells/well in a 96-well plate. After 24 h, the culture medium was replaced with medium containing tested compounds, and the cells were cultured for an additional 24 h. Then, the cells were washed with PBS and incubated with 5 μM DCFH-DA (diluted by PBS) at 37 °C for 30 min. […] Then, the fluorescence of the cells in each well was measured (λexcitation = 485 nm, λemission = 535 nm) with a multifunctional microplate reader (Flex Station 3). The antioxidant activity was expressed as a percentage relative to that of the control cells and calculated using the formula (Ft – Fnt)/(Ft’ – Fnt) ×100, where Ft is the fluorescence value of the cells treated with the tested compound, Ft’ is the fluorescence value of the cells not treated with the tested compound, and Fnt is the fluorescence value of the cells treated with t-BuOOH.

[2] = system: SH-SY5Y cells; experiment: MTT cytotoxicity assay; type: cell-based, human; conditions: below the 10 μM concentration, 48 h
[3] = Cu-ascorbate redox system (CCA fluorescence); conditions: [Cu^2+] = 5 μM, [16] = 15 μM, ascorbate 150 μM, CCA 50 μM, PBS pH 7.4
Procedure: The experiments were performed as reported previously. […]. Then, ascorbate (150 μM) was added to the solution, and the fluorescence was recorded every 20 s (λexcitation = 395 nm, λemission = 450 nm). Each experiment was performed in triplicate. All test solutions contained 1 μM desferryl and 0.1% methanol.

[4] = Oxygen Radical Absorbance Capacity (ORAC-FL) assay; conditions: Trolox as standard
Procedure: The assays were performed in 75 mM PBS (pH 7.4) and all the tested compounds were dissolved in DMSO and diluted with the PBS. Trolox was used as a standard (1–10 μM final concentration). The tested compounds at different concentrations (20 μL, final concentration: 2 μM) and fluorescein (FL, 120 μL, final concentration: 300 nM) were placed in the wells of a black 96-well plate. The mixture was incubated for 10 min at 37 °C and then, APPH solution (60 μL, final concentration: 12 mM diluted by 75 mM PBS) was added rapidly. […] A blank (FL + AAPH), with PBS replacing the compounds and Trolox was used for calibration in each assay. The compounds were tested at different concentrations (0.5–10 μM). The experiments were performed in three independent runs for each sample. The fluorescence measurements were normalized to that of the blank (without antioxidant). The area under the fluorescence decay curve (AUC) was calculated using the following equation (eq. 2):
where f0 is the fluorescence reading at 0 min and fi is the fluorescence reading at time i. The net AUC was calculated by the expression AUCsample − AUCblank. Regression equations between net AUC and Trolox concentrations were calculated. The final results were expressed in μM of Trolox equivalent/μM of pure compounds.

[5] = Metal-chelating capacity by UV-vis spectrophotometry; type: physicochemical; conditions: 30% (v/v) ethanol/buffer, pH 7.4
Procedure: The experiments were performed according to previously reported methods. The metal chelation was monitored spectrophotometrically using a UV–vis spectrophotometer. […].

[6] = Lipid-water distribution coefficient, shake-flask 1-octanol/water; type: physicochemical; conditions: 1-octanol/water (1:1), means of at least three independent tests
[7] = target: T1, PDE10A2 (448–789) (Homo sapiens, UniProt Q9Y233); experiment: PDE activity assay, PDE10A2 catalytic domain; type: biochemical
T1 construct: PDE10A2 (448–789)
T1 sequence (Q9Y233 714-1055): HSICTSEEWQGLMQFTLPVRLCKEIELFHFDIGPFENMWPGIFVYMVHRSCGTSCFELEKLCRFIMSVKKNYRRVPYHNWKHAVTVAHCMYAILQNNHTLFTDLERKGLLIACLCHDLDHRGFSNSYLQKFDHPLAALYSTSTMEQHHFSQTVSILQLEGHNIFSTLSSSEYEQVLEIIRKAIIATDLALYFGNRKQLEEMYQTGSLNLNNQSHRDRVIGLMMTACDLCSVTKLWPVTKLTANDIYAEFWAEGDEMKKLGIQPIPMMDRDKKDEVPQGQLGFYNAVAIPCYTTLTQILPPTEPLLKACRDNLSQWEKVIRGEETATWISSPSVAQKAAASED
Procedure: (§1) The enzymatic activities of the catalytic domains of PDE9 and other PDEs were measured by using cGMP or cAMP as substrates. The assay buffer contained 20–50 mM Tris–HCl (pH 7.5–8.0), 10 mM MgCl2 or 4 mM MnCl2, 1 mM DTT, and 10–20 nM ^3H-cGMP or ^3H-cAMP (20000–30000 cpm/assay, GE Healthcare). The reaction was performed at room temperature for 15 min and then terminated by the addition of 0.2 M ZnSO4. The addition of 0.25 M BaSO4 precipitated the generated ^3H-GMP, whereas the unreacted ^3H-cGMP remained in solution. The radioactivity in the supernatant was measured in 2.5 mL with an Ultim Gold liquid scintillation counter. […] The IC50 values were calculated by nonlinear regression method by using GraphPad Prism 5.0 Software.

[8] = target: T2, PDE7A1 (130–482) (Homo sapiens, UniProt Q13946); experiment: PDE activity assay, PDE7A1 catalytic domain; type: biochemical
T2 construct: PDE7A1 (130–482)
T2 sequence (Q13946 130-482): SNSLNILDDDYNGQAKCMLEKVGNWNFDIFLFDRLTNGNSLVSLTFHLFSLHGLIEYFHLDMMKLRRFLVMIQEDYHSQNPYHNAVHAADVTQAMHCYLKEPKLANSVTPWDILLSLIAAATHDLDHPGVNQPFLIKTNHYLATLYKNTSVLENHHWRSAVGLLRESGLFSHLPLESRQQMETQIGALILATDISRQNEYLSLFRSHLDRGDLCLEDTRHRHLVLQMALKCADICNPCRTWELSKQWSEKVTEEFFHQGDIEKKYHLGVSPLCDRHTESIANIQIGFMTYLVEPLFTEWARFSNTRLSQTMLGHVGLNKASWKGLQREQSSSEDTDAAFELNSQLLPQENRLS
Procedure: as §1

[9] = PAMPA-BBB in vitro blood-brain barrier permeation assay; type: in vitro ADME
Procedure: The blood–brain barrier penetration capacity of the compounds was evaluated by using the parallel artificial membrane permeation assay (PAMPA). […] The porcine brain lipid (PBL) was obtained from Avanti Polar Lipids. The donor microplate (PVDF membrane, pore size of 0.45 nm) and the acceptor microplate were from Millipore. The acceptor 96-well microplate (COSTAR) was filled with 300 μL of a PBS/EtOH mixture (7:3) and the filter membrane was impregnated with 4 μL of PBL in dodecane (20 mg/mL). The compounds were dissolved in DMSO at a concentration of 5 mg/mL and diluted with the PBS/EtOH mixture (7:3) to a concentration of 100 μg /mL. Then, 200 μL of this solution was added to the donor wells and the wells were carefully placed on the acceptor plate, which was then incubated for 10 h at 25 °C in a vibrationless environment. After the incubation, the donor plate was removed and the concentration of compounds in the acceptor wells was determined with a UV plate reader (Flexstation 3). Each sample was analyzed at five wavelengths in four wells, and at least three independent runs were performed. The results are expressed as the mean ± standard deviation. In these experiments, 13 quality control standards of known BBB permeability were included to validate the analysis set.
where Vd is the volume in the donor well, Va is the volume in acceptor well, A is the filter area, t is the permeation time, [drug]acceptor is the absorbance of the compound in the acceptor well, and [drug]equilibrium is the theoretical equilibrium absorbance.

[10] = target: T3, Aβ1-42 fibrils (Homo sapiens, UniProt P05067); experiment: ThT assay, disaggregation of Cu^2+-induced Aβ1-42 fibrils; type: biochemical; conditions: [Aβ1-42] = 25 μM, compound 50 μM, [Cu^2+] = 25 μM, additional 24 h
T3 construct: purchased Sigma
T3 sequence (P05067 672-713 limits assumed): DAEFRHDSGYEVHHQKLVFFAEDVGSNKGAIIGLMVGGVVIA
Procedure: For assaying the disaggregation of the copper (II)-induced Aβ1-42 fibrils, the Aβ1-42 stock solution was first diluted in HEPES buffer ([…], pH 6.6). The mixture of the peptide (10 μL, 25 μM final concentration) and copper (II) (10 μL, 25 μM final concentration) was then incubated at 37 °C for 24 h. Then, the test compound (10 μL, 50 μM final concentration) was added and incubated at 37 °C for an additional 24 h. Thereafter, 30 μL of the sample was diluted to a final volume of 200 μL with 50 mM glycine-NaOH buffer (pH 8.0) containing thioflavin-T (5 μM) in the dark. The detection method used was the same as that described above.

[11] = target: T4, PDE4D2 (86–413) (Homo sapiens, UniProt Q08499); experiment: PDE activity assay, PDE4D2 catalytic domain; type: biochemical
T4 construct: PDE4D2 (86–413)
T4 sequence (Q08499 388-715): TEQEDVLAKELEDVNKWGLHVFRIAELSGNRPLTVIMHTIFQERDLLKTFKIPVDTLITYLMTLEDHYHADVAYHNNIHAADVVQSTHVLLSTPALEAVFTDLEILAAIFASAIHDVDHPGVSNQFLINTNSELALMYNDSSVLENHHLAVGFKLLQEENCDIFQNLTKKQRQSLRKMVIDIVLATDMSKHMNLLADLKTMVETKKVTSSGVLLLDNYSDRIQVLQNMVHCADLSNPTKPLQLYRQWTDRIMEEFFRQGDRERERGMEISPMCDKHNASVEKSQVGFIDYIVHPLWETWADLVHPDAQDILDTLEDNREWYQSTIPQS
Procedure: as §1

[12] = target: T5, PDE1B2 (10–487) (Homo sapiens, UniProt Q01064); experiment: PDE activity assay, PDE1B2 catalytic domain; type: biochemical
T5 construct: PDE1B2 (10–487)
T5 sequence (Q01064 10-487 isoform Q01064-2): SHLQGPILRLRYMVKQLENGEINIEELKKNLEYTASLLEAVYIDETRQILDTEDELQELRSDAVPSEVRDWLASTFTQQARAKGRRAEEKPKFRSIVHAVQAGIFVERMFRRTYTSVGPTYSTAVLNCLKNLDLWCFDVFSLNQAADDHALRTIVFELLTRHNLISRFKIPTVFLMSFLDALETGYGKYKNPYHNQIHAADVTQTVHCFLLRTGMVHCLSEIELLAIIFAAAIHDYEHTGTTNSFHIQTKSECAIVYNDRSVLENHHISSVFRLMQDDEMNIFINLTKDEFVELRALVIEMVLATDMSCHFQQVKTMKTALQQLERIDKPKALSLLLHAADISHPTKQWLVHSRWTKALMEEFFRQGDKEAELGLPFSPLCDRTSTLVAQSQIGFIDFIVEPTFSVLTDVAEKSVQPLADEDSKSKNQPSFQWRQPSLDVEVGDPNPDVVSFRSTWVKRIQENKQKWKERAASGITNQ
Procedure: as §1

[13] = target: PDE5A1 (535–860) (Homo sapiens, UniProt O76074); experiment: PDE activity assay, PDE5A1 catalytic domain; type: biochemical
Procedure: as §1

[14] = target: T6, PDE8A1 (480–820) (Homo sapiens, UniProt O60658); experiment: PDE activity assay, PDE8A1 catalytic domain; type: biochemical
T6 construct: PDE8A1 (480–820)
T6 sequence (O60658 480-820): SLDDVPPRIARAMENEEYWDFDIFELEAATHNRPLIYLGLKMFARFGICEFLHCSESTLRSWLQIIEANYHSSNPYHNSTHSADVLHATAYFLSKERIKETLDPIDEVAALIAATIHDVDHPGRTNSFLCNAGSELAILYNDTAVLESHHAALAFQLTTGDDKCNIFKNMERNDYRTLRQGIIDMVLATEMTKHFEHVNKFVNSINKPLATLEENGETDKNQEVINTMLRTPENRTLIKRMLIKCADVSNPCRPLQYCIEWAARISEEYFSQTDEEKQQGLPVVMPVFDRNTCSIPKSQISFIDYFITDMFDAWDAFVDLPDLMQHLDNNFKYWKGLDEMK
Procedure: as §1

[15] = target: T7, PDE3A (679–1087) (Homo sapiens, UniProt Q14432); experiment: PDE activity assay, PDE3A catalytic domain; type: biochemical
T7 construct: PDE3A (679–1087)
T7 sequence (Q14432 679-1087): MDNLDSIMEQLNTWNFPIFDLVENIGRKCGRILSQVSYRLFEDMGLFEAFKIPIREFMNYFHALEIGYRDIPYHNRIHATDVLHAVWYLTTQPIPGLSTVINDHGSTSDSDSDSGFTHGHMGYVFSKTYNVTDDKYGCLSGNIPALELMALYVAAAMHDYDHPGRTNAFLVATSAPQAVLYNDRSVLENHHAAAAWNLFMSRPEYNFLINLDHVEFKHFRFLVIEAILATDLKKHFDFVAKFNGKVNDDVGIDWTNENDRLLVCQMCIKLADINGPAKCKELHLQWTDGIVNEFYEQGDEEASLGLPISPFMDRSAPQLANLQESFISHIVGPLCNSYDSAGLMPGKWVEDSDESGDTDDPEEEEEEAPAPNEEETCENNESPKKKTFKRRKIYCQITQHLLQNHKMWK
Procedure: as §1

[16] = target: T8, PDE2A3 (580–941) (Homo sapiens, UniProt O00408); experiment: PDE activity assay, PDE2A3 catalytic domain; type: biochemical
T8 construct: PDE2A3 (580–941)
T8 sequence (O00408 580-941): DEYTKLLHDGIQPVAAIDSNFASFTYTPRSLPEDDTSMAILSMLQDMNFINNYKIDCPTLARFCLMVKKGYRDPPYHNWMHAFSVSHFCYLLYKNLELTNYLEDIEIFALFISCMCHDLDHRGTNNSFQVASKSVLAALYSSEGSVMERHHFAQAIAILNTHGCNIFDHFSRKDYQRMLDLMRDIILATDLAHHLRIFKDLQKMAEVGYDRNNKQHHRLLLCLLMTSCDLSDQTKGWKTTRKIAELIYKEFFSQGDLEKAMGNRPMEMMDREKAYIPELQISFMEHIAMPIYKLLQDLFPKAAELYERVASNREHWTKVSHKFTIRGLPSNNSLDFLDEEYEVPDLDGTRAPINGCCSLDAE
Procedure: as §1

[17] = target: T9, Aβ1-42 (Homo sapiens, UniProt P05067); experiment: Transmission electron microscopy (TEM) assay of Aβ1-42; type: biochemical; conditions: [Aβ1-42] = 25 μM, compound 50 μM, [Cu^2+] = 25 μM, 37 °C, 24 h
T9 construct: purchased Sigma
T9 sequence (P05067 672-713 limits assumed): as the sequence (P05067 672-713 limits assumed) above
Procedure: The assays were performed as reported previously. For the TEM assay of copper (II)-induced Aβ1-42 aggregation and the disaggregation of the fibrils, the samples were pretreated as described for the ThT assay. Samples (10 μL) were placed on a carbon-coated copper/rhodium grid for 2 min. Then, each grid was stained with uranyl acetate (1%, 5 μL) for 2 min. After the excess staining solution was drained off, the specimen was transferred for imaging by a transmission electron microscope (JEOL JEM-1400).

## COc1ccc(CN[C@H](C)c2nc3c(cnn3C3CCCC3)c(=O)[nH]2)c(O)c1 [Compound 16]
[1]
  intracellular antioxidant activity (ROS, DCFH-DA): superior antioxidant activity to that of Trolox
[2]
  cytotoxicity toward SH-SY5Y cells (MTT): nearly no toxicity
[3]
  copper redox cycling, OH· production (7-hydroxyl-CCA fluorescence): fully inhibited
[4]
  ORAC: 4.47 ± 0.10 μmol of Trolox equiv/μmol tested compound
  oxygen radical absorbance capacity, ORAC-FL value: 4.47 ORAC-FL units
[5]
  chelation of Cu^2+, Fe^2+, Zn^2+ (UV-vis absorbance changes): formation of 16-Metal ion (II) complex
  chelation of Fe^3+ (UV-vis): failed to chelate Fe^3+ effectively
[6]
  logP at 30 min: 1.1
[7]
  IC50: 6900 nM
[8]
  IC50: > 50000 nM
[9]; PAMPA, PBS:EtOH (70:30), mean ± SD of three independent experiments, read-out: Permeability
  Papp at 10 h, 100 μg/mL: 17 ×10⁻⁶ cm/s
[9]; from PAMPA-BBB Pe
  prediction of penetration into the CNS: CNS+ (Compounds of high BBB permeation (CNS+) Pe > 4.7)
[10]
  disaggregation of Cu^2+-induced Aβ1-42 fibrils (ThT): 64.6%
[11]
  IC50: 25000 nM
[12]
  IC50: 17000 nM
[13]
  IC50: 1900 nM
[14]
  IC50: > 50000 nM
[15]
  IC50: > 10000 nM
[16]
  IC50: > 50000 nM
[17]
  Aβ fibrils by TEM, disaggregation of preformed fibrils: drastically reduced the amount of Aβ fibrils
  Aβ fibrils by TEM, inhibition of Cu^2+-induced aggregation: fewer fibrils were observed than in the presence of CQ
